One data set has as its system EO771. Put plainly: Inhibition of mammary carcinoma cell line EO771. It is filed as cell-based, mouse (C57BL/6). The note with it: Mus musculus; Table 5; EO771, C57BL/6, Basal, HER2−. How it is done:
3-(4,5-Dimethylthiazol-2-yl)-2,5-diphenyltetrazolium Bromide (MTT) Cell Proliferation Assay. To cells grown in 96-well-tissue culture plate, 20 μl/well of MTT solution (5 mg/ml in PBS) was added. After 1-2 hours incubation at 37° C., the plate was centrifuged. Supernatant was discarded and 100 μl DMSO was added to dissolve water insoluble formazan, and the absorbance was read at 540 nm with a plate reader.

The subject of a further data set is ERα. Description: Nuclear translocation of ERα in MCF-7 cells. The class given is cell-based, human. The note with it: 10 μM, 2 hours, FIG. 6. How it is done: FIG. 6. […] A. representative images (Blue: nuclei; Red: ERα) from an experiment. B. Percentage change of nuclear ERα density normalized to nuclear DNA stained by Hoechst. MCF-7 cells (1.5×10^4 cells/well) were seeded on uSlide (8 wells, Ibidi, cat #80826) and cultured with complete culture medium (MEM medium with Earle's salts & L-glutamine) containing 10% FBS, 10 mM HEPES, 2 mM glutamine and 100 U penicillin and 100 U streptomycin for almost 70 hours. Then the cells were starved in serum, phenol red and antibiotics free MEM medium for almost 16 hours, followed with HCB (10 μM) or vehicle (0.01% DMSO) treatment for 2 hours in starvation medium. Then the cells were fixed, permeabilized and probed with monoclonal antibody against ERα (Abcam, Cat #16660, primary antibody) and Texas Red-conjugated goat anti rabbit IgG (Thermo Fisher Scientific, Cat #T-6391, secondary antibody). Nuclei were stained with Hoechst dye (Thermo Scientific, Cat #62249). The nuclear ERαas were analyzed with confocal microscopy. Four sites per well were selected randomly for collecting the image data. The density of fluorescence was measured by ImageJ. […] Intensities of lights in each ROI were measured in the blue channel (nuclei) and red (Texas red, estrogen receptor α) channel. […] Results normalized to control are expressed as means±S.D. (n=7). […]

Data set [1] concerns the target T1, CYP3A4 (Homo sapiens, UniProt P08684). Description: CYP3A4 binding by Soret band spin shift analysis. The note with it: FIG. 16, read-out: estimated Kd. As to the method:
HCB induces a low-to-high spin transition in 3A4, meaning that it binds within the active site near the heme (FIG. 16).
A. HBB binds soluble CYP3A4 Δ3-22, dependent on the heme iron. The HBB binding spectrum is shown in red. Control spectra with dithionite reduction (blue) and CO adduct formation (green) are shown as well as untreated CYP3A4 Δ3-22 (black). B. HBB docked to truncated CYP3A4 Δ3-22 induces a low to high spin shift (left) with a Ks=74±7 μM (right). (FIG. 16)
Target sequence in this assay (P08684 with tags, fused parts or gaps): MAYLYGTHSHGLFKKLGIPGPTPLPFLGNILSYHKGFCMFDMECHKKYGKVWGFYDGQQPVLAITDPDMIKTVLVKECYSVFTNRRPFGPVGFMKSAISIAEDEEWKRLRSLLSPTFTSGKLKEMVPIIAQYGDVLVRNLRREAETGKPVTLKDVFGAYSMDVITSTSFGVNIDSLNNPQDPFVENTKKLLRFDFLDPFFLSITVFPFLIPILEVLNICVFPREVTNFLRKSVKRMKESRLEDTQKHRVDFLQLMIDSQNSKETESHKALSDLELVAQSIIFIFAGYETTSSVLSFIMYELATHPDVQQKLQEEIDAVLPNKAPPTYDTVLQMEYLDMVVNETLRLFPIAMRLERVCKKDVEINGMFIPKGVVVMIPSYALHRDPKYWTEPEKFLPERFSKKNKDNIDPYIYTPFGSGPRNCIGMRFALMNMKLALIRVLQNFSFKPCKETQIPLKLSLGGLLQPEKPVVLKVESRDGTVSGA

In data set [2] the target is T1, CYP3A4. Description: Stability with recombinant human CYP3A4. The class given is in vitro ADME. Also noted: purchased Corning; host or cells: insect cells (microsomes). How it is done:
Stability of HCB with recombinant human CYP3A4 and CYP2C8 enzymes was evaluated. 10 μM HCB was tested wich CYP3A4 and 2C8 (200 pmol/L) (Table 8). NADPH (2 mM) was added as a cofactor. Total volume was 200 μL.
HCB was incubated for 0, 30, or 60 min at 37° C. Incubations were quenched with 2 volumes of acetonitrile followed by centrifugation for 10 min at 16,000 g.
Target sequence in this assay (P08684 whole entry): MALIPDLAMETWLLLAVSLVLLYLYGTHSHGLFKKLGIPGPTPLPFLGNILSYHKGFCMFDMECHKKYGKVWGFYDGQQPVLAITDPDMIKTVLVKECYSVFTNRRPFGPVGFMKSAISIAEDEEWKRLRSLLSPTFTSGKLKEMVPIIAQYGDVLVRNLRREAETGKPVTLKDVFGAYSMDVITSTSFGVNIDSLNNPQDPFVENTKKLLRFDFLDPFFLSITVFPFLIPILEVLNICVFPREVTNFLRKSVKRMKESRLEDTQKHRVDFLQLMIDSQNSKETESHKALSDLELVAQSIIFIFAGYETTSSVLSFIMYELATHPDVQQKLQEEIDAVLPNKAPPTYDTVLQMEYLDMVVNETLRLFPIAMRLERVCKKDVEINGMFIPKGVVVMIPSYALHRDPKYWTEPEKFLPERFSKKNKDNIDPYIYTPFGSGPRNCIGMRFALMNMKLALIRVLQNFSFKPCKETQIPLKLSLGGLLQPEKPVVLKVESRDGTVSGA

For another data set, the system named is AMPKα. Description: AMPKα phosphorylation (Thr172) in MCF-7 cells, Western blotting. The class given is cell-based, human. The conditions noted are these: 10 μM, with and without serum, FIG. 7. As to the method:
FIG. 7. Effect of HCB on MCF-7 AMPKα phosphorylation (Thr172). MCF-7 cells were grown in complete media to 70% confluency and treated with 10 μM HCB. Cells were harvested at varied time (0-24 hr) and total proteins were extracted and analyzed by Western blotting. For 0% serum experiment, complete media was replaced with serum, phenol red and antibiotics free media 16 hours before treatment. Quantitation results are expressed as mean±S.D. (n=3, * indicates statistically significant difference, p<0.05). MCF-7 cells were grown in complete media (10% serum) to 80% confluence. Left panel: HCB was added to a final concentration of 10 μM in complete media; Right panel: complete media was replaced with serum free media and serum starved for 16 hours before HCB was added to a final concentration of 10 μM. At indicated time points after the addition of HCB, cells were harvested and analyzed by Western blotting. AMPK activation was reported as fractional Thr172 phosphorylation±S.D. (n=3, * indicates statistically significant difference from control).
Background: Immunoblotting shows a protein as a band on a membrane.

Another data set has as its system mm001. Put plainly: Oxygen consumption rate (OCR), mm001. The class given is cell-based, mouse (C57BL/6). As to the method: Measurement of oxygen consumption rate (OCR). Cells were maintained in growth medium consisting of 10% FBS at 37° C. with 5% CO2 and seeded at 25,000 cells per well in a 96-well XF96 cell culture microplates (Agilent, Santa Clara, CA). An 96 well XF sensor cartridge was hydrated and equilibrated with 200 ul calibrant in each well at 37° C. without CO2 overnight. Growth media was replaced with 150 μL DMEM based assay media (a non-buffered medium including 2 mM L-glutamine but no sodium bicarbonate (buffering agent), glucose, or sodium pyruvate, Agilent, Santa Clara, CA) the next day and cells were incubated CO2 free for 1 hour before the measurement of OCR by a Seahorse XFe Extracellular Flux Analyzer (Agilent, Santa Clara, CA), which measures uptake and excretion of metabolic end products in real time. After baseline measurements, 20 μl assay medium containing control vehicle or drugs were injected into corresponding wells. OCRs were measured periodically and can be reported in pmoles/minute or normalized against baseline measurements before treatment.

The term IC50 denotes the midpoint of a concentration-inhibition curve. The Kd is a measure of binding affinity in units of concentration.

Entries after “also recorded” stand apart in the source; their conditions may differ.

In the data set with EO771, `CCCCCCNC(=N)NC(=N)NCc1ccccc1` [HBB, N1-hexyl-N5-benzyl-biguanide] came in with an IC50 of 21.7 µM.

On to `CCCCCCNC(=N)NC(=N)NCC12C3C4C5C3C1C5C42` (stereo not shown) [HCB, Hexyl Cubanomethyl Biguanide], for which the “nuclear translocation of estrogen receptor (ER-α)” value in the data set with ERα is on record as “significantly decrease; also recorded: decreases nuclear translocation of ERα”. The Kd on CYP3A4 [1] was 74 µM. The “parent metabolite peak area after 60 min” value at CYP3A4 [2] (10 μM HCB, recombinant human CYP3A4, NADPH 2 mM) is 93.91%. For the same molecule, on CYP3A4 [2] (recombinant human CYP3A4 and CYP2C8), the degradation pathways result was “oxidation, dealkylation, and hydrogenation”. For the same molecule, the AMPK phosphorylation result in the data set on AMPKα was “potent activation”. For the same molecule, the “OCR Inhibition [HCB] (uM) v vs. control (P < 0.05)” value in the data set with mm001 came out at 10 µM.

These data come from patent US20240067603A1, “CUBANYL BIGUANIDE COMPOUNDS” (REGENTS OF THE UNIVERSITY OF MINNESOTA, priority 2020, published 2024).
